From patent US20250312474A1, “ANTHRACYCLINS AND CONJUGATES THEREOF” (priority 2022, published 2025)
Read-outs that look alike come from different tables or passages of the source.

Columns and labels:
[1] = test system: JIMT-1 cells; test: In vitro cytotoxicity of free payloads (resazurin cell viability, 3 days); format: cell-based, human; conditions: for IC50: Homo sapiens, JIMT-1, 72 h, read-out: IC50 JIMT-1 (HER2 1+); for IC50 JIMT-1 (HER2 1+): free payload, 3 days incubation, 10 pM to 100 nM
Protocol: (§1) SK-OV-3, NCI-N87, JIMT-1 and MDA-MB-231 cells were plated in 96-well plates (5000 cells/well) in RPMI-1640 GlutaMAX (Invitrogen) supplemented with 10% fetal bovine serum (FBS) (Invitrogen, 150 μL/well) and incubated overnight in a humidified atmosphere at 37° C. and 5% CO2. Compounds 6a, 6b, 6c, 6d and 6e were added in triplo in a square root of 10-fold dilution series to obtain a final concentration ranging from 1 pM to 10 nM (for SK-OV-3 and NCI-N87) or 10 pM to 100 nM (for JIMT-1 and MDA-MB-231) and a final volume of 200 μL/well. The cells were incubated for 3 days in a humidified atmosphere at 37° C. and 5% CO2. The culture medium was replaced by 0.01 mg/mL resazurin (Sigma Aldrich) in RPMI-1640 GlutaMAX supplemented with 10% FBS (200 μL/well). After 4 hours in a humidified atmosphere at 37° C. and 5% CO2 the fluorescence was detected with a fluorescence plate reader (Infinite® M1000 Tecan) at 560 nm excitation and 590 nm emission. The relative fluorescent units (RFU) were normalized to cell viability percentage by setting wells without cells at 0% viability and wells with untreated cells at 100% viability. Viability was plotted using Graphpad prism software (see FIG. 20).

[2] = test system: NCI-N87 cells; test: as above; format: cell-based; conditions: Homo sapiens, NCI-N87, 72 h, read-out: IC50 NCI-N87 (HER2 3+)
Protocol: as §1, with “Compounds 6a, 6b, 6c, 6d and 6e were added in triplo in a square root of 10-fold dilution series to obtain a final concentration ranging from 1 pM to 10 nM (for SK-OV-3 and NCI-N87) or 10 pM to 100 nM (for JIMT-1 and MDA-MB-231) and a final volume of 200 μL/well.” left out

[3] = test system: SK-OV-3 cells; test: as above; format: cell-based; conditions: Homo sapiens, SK-OV-3, 72 h, read-out: IC50 SK-OV-3 (HER2 3+)
Protocol: as §1

[4] = test system: MDA-MB-231 cells; test: as above; format: cell-based; conditions: for IC50: Homo sapiens, MDA-MB-231, 72 h, read-out: IC50 MDA-MB-231 (HER2−); for IC50 MDA-MB-231 (HER2−): free payload, 3 days incubation, 10 pM to 100 nM
Protocol: as §1

[5] = more potent than doxorubicin; cited from earlier work
[6] = test system: preclinical models; conditions: cited from earlier work
[7] = free payload, 3 days incubation, 1 pM to 10 nM

Row | Compound | IC50 [1] [nM] | IC50 [2] [nM] | IC50 [3] [nM] | IC50 [4] [nM] | IC50 JIMT-1 (HER2 1+) [1] | IC50 [2, 7] [nM] | IC50 [3, 7] [nM] | IC50 MDA-MB-231 (HER2−) [4] | potency relative to doxorubicin [5] [×] | MED [6] [mg/kg]
1 | COc1cccc2c1C(=O)c1c(O)c3c(c(O)c1C2=O)C[C@@](O)(C(=O)CO)C[C@@H]3O[C@H]1C[C@H]2[C@H](O[C@@H]3[C@@H](OCc4ccc(N=[N+]=[N-])cc4)OCCN32)[C@H](C)O1 [Compound 6e] | 0.52 | 0.795 | 0.845 | 0.705 | – | – | – | – | – | –
2 | COc1cccc2c1C(=O)c1c(O)c3c(c(O)c1C2=O)C[C@@](O)(C(=O)CO)C[C@@H]3O[C@H]1C[C@H]2[C@H](O[C@@H]3[C@@H](OCc4ccccc4)OCCN32)[C@H](C)O1 [Compound 6d] | 0.259 | 0.339 | 0.217 | 0.169 | – | – | – | – | – | –
3 | COc1cccc2c1C(=O)c1c(O)c3c(c(O)c1C2=O)C[C@@](O)(C(=O)CO)C[C@@H]3O[C@H]1C[C@H]2[C@H](O[C@@H]3[C@@H](OC)OCCN32)[C@H](C)O1 [Compound 6a, reference compound] | – | – | – | – | no accurate IC50 value could be calculated | 0.085 | 0.028 | no accurate IC50 value could be calculated | – | –
4 | COc1cccc2c1C(=O)c1c(O)c3c(c(O)c1C2=O)C[C@@](O)(C(=O)CO)C[C@@H]3O[C@H]1C[C@H]2[C@H](O[C@@H]3[C@@H](OCCN=[N+]=[N-])OCCN32)[C@H](C)O1 [Compound 6b] | – | – | 0.099 | – | no accurate IC50 value could be calculated | – | – | no accurate IC50 value could be calculated | – | –
5 | COc1cccc2c1C(=O)c1c(O)c3c(c(O)c1C2=O)C[C@@](O)(C(=O)CO)C[C@@H]3O[C@H]1C[C@H]2[C@H](O[C@@H]3[C@@H](OC)OCCN32)[C@H](C)O1 [PNU-159,682] | – | – | – | – | – | – | – | – | > 1000 | 0.033
6 | COc1cccc2c1C(=O)c1c(O)c3c(c(O)c1C2=O)C[C@@](O)(C(=O)CO)C[C@@H]3O[C@H]1C[C@H]2[C@H](O[C@@H]3[C@@H](OC(C)C)OCCN32)[C@H](C)O1 [Compound 6c] | 0.159 | 0.416 | 0.187 | 0.174 | – | – | – | – | – | –
